The target of experiment [1] is Serine/threonine-protein kinase D3 (Homo sapiens) (UniProt O94806). The note with it: Compound concentration 1000.0 nM.
In experiment [2] the test system is Phosphatidylinositol 4,5-bisphosphate 3-kinase catalytic subunit alpha isoform (Homo sapiens), P42336 [E545K]. The note with it: Compound concentration 1000.0 nM.
For experiment [3], the target named is Serine/threonine-protein kinase pim-1 (Homo sapiens) (UniProt P11309). The note with it: Compound concentration 1000.0 nM.
Experiment [4] addresses Ankyrin repeat and protein kinase domain-containing protein 1 (Homo sapiens) (UniProt Q8NFD2). The note with it: Compound concentration 1000.0 nM.
Experiment [5] addresses Alpha-2B adrenergic receptor (Homo sapiens) (UniProt P18089). Conditions: Compound concentration 10.0 uM.
The target in experiment [6] is Serine/threonine-protein kinase PLK2 (Homo sapiens) (UniProt Q9NYY3). Conditions: Compound concentration 1000.0 nM.
The target in experiment [7] is Myosin-IIIa (Homo sapiens) (UniProt Q8NEV4). Conditions: Compound concentration 1000.0 nM.
Experiment [8] addresses 5-hydroxytryptamine receptor 1A (Homo sapiens) (UniProt P08908). Conditions: Compound concentration 10.0 uM.
In experiment [9] the target is Receptor tyrosine-protein kinase erbB-4 (Homo sapiens) (UniProt Q15303). Conditions: Compound concentration 1000.0 nM.
Experiment [10] has as its target Fibroblast growth factor receptor 3 (Homo sapiens) (UniProt P22607). Conditions: Compound concentration 1000.0 nM.
In experiment [11] the target is Serine/threonine-protein kinase PRP4 homolog (Homo sapiens) (UniProt Q13523). The note with it: Compound concentration 1000.0 nM.
For experiment [12], the target named is Serine/threonine-protein kinase pim-3 (Homo sapiens) (UniProt Q86V86). The note with it: Compound concentration 1000.0 nM.
The target of experiment [13] is Myosin light chain kinase, smooth muscle (Homo sapiens) (UniProt Q15746). The note with it: Compound concentration 1000.0 nM.
Experiment [14] deals with Phosphatidylinositol 4,5-bisphosphate 3-kinase catalytic subunit alpha isoform (Homo sapiens) (UniProt P42336). Conditions: Compound concentration 1000.0 nM.
In experiment [15] the test system is Tyrosine-protein kinase ABL1 (Homo sapiens), P00519 [T315I]. The note with it: Compound concentration 1000.0 nM.
Experiment [16] deals with Mitogen-activated protein kinase kinase kinase 20 (Homo sapiens) (UniProt Q9NYL2). Conditions: Compound concentration 1000.0 nM.
Experiment [17] has as its system Receptor-type tyrosine-protein kinase FLT3 (Homo sapiens), P36888 [UNDEFINED MUTATION]. Conditions: Compound concentration 1000.0 nM.
Experiment [18] addresses GABA-A receptor; anion channel (Rattus norvegicus) (UniProt O09028+P15431+P18506+P18508+P19969+P20236+P23574+P23576+P28471+P28473+P30191+P62813+P63079+P63138+Q91ZM7+Q9ES14). The note with it: Compound concentration 10.0 uM.
In experiment [19] the test system is Phosphatidylinositol 4,5-bisphosphate 3-kinase catalytic subunit alpha isoform (Homo sapiens), P42336 [Q546K]. The note with it: Compound concentration 1000.0 nM.
The target of experiment [20] is Leucine-rich repeat serine/threonine-protein kinase 2 (Homo sapiens) (UniProt Q5S007). The note with it: Compound concentration 1000.0 nM.
The target in experiment [21] is T1, Serine/threonine-protein kinase TAO3 (Homo sapiens) (UniProt Q9H2K8).
T1 sequence (whole entry): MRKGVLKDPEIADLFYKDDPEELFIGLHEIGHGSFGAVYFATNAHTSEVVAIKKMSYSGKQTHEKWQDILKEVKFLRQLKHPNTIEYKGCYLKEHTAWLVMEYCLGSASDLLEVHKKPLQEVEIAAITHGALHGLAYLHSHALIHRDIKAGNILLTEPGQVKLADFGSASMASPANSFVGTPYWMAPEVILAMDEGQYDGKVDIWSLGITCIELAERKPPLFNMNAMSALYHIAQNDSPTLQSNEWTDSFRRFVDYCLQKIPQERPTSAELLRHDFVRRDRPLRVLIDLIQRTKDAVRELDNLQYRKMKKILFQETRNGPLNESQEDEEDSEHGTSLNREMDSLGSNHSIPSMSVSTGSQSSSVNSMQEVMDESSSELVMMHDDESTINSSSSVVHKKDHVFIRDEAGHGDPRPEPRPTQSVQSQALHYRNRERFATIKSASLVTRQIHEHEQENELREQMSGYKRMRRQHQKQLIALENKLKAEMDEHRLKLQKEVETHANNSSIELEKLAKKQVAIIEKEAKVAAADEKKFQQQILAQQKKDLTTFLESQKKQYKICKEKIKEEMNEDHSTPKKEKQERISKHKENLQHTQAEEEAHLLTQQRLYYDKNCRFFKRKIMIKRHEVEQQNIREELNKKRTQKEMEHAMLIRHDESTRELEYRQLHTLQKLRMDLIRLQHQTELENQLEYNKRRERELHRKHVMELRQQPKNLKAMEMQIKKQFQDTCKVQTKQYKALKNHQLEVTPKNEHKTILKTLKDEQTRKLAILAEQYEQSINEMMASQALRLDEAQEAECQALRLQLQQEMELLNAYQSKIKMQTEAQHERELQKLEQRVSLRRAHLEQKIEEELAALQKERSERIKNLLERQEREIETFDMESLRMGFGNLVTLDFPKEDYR
The note with it: Compound concentration 1000.0 nM.

Experiment [22] has as its target Serine/threonine-protein kinase PLK1 (Homo sapiens) (UniProt P53350). Conditions: Compound concentration 1000.0 nM.
Experiment [23] deals with T2, Mitogen-activated protein kinase 13 (Homo sapiens) (UniProt O15264).
T2 sequence (whole entry): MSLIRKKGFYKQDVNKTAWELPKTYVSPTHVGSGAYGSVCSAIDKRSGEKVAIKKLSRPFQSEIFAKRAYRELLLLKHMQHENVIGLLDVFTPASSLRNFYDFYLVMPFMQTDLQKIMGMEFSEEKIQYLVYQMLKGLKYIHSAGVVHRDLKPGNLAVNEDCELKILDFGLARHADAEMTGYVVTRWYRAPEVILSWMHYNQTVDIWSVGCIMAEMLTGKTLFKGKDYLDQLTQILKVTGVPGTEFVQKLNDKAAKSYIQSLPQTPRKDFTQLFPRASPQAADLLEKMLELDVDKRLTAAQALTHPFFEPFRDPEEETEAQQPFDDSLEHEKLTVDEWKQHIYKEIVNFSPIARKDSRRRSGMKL
The note with it: Compound concentration 1000.0 nM.

Chain of Serine/threonine-protein kinase pim-1 (Homo sapiens) (P11309 whole entry, looked up, the tested form may be a part): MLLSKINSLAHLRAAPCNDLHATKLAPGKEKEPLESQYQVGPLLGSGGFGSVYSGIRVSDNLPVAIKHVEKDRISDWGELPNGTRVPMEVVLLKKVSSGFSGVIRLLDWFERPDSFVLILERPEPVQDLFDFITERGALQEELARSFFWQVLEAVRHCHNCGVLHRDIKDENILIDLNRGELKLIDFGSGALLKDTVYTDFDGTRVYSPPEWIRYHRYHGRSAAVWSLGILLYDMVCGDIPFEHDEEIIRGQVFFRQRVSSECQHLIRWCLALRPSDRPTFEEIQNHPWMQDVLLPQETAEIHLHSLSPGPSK
Chain of 5-hydroxytryptamine receptor 1A (Homo sapiens) (P08908 whole entry): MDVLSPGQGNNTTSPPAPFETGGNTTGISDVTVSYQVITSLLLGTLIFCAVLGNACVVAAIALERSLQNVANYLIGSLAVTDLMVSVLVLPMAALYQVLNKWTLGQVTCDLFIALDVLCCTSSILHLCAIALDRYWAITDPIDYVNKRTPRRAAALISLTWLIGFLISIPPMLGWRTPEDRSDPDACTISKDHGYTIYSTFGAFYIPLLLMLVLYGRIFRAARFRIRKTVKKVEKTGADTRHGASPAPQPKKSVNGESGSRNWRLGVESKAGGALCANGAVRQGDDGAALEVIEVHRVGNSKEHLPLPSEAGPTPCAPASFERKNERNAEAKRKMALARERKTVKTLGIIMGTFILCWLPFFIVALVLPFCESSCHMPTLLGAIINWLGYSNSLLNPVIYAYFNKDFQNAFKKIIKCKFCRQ
Chain of Myosin-IIIa (Homo sapiens) (Q8NEV4 whole entry): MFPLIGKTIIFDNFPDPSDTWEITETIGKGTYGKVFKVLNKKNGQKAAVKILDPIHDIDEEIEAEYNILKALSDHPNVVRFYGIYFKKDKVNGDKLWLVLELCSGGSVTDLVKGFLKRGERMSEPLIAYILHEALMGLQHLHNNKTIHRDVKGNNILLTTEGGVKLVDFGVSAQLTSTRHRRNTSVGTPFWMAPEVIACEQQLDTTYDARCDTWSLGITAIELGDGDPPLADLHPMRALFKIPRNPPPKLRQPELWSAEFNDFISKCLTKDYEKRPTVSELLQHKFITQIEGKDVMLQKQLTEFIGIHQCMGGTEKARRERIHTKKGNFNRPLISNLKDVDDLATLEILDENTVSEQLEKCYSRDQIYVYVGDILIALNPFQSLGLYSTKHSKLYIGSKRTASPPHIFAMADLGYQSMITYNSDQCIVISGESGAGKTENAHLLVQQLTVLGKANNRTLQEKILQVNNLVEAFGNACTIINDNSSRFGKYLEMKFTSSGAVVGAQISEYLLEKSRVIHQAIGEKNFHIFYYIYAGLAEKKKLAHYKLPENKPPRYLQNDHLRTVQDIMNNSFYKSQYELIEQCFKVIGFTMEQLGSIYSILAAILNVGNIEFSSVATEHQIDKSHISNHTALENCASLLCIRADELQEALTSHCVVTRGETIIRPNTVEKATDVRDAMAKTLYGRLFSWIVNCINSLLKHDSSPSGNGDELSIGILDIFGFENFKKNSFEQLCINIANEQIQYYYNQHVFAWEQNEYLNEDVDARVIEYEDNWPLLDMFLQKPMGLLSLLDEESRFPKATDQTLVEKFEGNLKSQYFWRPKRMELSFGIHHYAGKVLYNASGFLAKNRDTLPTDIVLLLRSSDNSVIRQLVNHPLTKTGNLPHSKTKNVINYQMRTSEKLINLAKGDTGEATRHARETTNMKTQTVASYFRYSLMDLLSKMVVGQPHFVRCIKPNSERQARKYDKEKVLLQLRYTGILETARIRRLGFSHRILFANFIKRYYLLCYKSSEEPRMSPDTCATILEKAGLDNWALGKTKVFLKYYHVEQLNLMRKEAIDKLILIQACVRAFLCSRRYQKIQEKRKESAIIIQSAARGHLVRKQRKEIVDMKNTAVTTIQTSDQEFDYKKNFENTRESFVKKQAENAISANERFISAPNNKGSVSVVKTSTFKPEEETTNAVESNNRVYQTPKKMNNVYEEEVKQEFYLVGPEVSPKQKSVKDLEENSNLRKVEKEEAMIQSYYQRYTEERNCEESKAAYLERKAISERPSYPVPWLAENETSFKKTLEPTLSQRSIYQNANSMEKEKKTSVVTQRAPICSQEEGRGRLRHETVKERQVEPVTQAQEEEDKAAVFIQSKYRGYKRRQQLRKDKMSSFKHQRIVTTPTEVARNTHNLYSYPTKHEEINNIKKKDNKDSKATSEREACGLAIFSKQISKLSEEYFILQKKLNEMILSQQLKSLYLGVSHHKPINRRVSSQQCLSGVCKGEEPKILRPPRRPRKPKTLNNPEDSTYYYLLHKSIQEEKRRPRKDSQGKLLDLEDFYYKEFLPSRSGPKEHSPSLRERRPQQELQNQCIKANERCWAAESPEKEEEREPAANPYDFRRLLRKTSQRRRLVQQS
Chain of Leucine-rich repeat serine/threonine-protein kinase 2 (Homo sapiens) (Q5S007 whole entry): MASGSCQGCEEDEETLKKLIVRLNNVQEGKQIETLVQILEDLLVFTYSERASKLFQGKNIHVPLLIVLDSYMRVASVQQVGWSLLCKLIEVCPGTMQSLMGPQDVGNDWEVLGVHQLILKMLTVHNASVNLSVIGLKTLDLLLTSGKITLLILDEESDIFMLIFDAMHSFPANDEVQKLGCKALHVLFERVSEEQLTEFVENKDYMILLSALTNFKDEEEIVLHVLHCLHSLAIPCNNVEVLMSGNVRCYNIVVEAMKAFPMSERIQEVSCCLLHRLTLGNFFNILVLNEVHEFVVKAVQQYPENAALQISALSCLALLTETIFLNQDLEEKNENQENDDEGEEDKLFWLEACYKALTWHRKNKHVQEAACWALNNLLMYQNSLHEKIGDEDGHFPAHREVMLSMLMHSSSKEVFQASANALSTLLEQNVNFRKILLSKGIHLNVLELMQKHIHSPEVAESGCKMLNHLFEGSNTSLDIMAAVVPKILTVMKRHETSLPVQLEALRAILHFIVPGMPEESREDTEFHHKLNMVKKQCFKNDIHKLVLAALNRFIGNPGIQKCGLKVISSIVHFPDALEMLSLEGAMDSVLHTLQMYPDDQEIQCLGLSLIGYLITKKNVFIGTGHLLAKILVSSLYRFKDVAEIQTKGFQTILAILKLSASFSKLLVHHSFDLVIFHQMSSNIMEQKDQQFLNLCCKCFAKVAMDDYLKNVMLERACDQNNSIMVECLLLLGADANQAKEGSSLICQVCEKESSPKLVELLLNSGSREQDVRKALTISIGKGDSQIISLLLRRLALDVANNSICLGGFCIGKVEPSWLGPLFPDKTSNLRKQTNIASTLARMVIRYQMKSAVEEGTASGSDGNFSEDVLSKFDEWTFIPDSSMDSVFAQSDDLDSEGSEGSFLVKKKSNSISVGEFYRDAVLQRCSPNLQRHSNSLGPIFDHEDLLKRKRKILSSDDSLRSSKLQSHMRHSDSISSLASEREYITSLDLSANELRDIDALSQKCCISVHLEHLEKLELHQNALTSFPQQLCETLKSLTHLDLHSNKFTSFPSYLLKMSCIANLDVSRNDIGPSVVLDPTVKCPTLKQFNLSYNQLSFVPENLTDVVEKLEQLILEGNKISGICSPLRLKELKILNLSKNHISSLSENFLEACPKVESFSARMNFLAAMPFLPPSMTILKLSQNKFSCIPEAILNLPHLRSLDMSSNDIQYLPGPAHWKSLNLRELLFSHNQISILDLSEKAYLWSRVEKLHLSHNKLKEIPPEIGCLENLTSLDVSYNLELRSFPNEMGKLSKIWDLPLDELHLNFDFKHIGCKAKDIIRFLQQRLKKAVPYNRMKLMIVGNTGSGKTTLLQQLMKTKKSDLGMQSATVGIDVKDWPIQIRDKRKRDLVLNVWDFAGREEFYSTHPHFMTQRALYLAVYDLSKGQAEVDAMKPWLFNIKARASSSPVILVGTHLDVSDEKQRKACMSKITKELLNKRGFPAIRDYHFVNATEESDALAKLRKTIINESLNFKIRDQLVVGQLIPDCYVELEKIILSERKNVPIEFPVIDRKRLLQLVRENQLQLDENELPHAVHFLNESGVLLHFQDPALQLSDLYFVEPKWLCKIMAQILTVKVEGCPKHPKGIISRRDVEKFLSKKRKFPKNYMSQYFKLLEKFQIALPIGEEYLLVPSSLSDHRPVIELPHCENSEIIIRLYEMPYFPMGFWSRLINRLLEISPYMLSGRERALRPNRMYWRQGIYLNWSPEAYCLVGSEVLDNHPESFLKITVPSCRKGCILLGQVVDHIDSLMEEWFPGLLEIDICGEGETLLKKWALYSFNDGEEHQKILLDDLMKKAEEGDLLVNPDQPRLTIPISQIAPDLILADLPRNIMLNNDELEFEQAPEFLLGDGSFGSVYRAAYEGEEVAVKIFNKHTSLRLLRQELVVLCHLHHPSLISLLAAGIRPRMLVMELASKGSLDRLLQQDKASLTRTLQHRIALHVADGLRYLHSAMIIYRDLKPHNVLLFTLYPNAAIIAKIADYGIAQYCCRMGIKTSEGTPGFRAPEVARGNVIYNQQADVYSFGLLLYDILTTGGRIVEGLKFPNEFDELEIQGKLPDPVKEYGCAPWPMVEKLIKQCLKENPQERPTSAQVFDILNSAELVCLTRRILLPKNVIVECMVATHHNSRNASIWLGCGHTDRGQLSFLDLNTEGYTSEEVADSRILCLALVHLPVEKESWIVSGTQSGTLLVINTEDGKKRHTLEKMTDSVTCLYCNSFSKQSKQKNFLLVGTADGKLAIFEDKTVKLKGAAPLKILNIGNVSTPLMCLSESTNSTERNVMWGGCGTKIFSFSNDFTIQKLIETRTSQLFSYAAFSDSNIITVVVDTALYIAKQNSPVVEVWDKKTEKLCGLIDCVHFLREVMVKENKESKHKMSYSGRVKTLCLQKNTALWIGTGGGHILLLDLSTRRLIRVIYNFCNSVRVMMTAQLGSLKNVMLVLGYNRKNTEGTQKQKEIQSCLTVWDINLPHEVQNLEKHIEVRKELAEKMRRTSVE

For orientation: inhibition means the drop in the measured response relative to a control, in per cent. With `CC1=C(C#N)C(c2ccc3c(c2)c(NC(=O)c2ccccc2C)nn3C)C(C#N)=C(C)N1` [BAY-974], the residual activity in experiment [1] is 72%; in experiment [2], 90%; in experiment [3], 100%; in experiment [4] it was 92%; in experiment [6], 74%; in experiment [7], 86%. Besides, the residual activity in [9] is 65%; in [10], 94%; in [11], 77%; in experiment [12], 100%; in experiment [13] it was 100%; in experiment [14] it was 100%. Further, the residual activity in experiment [15] is 88%; in experiment [16] it was 100%; in [17], 96%; in experiment [19], 87%; in [20], 88%; in experiment [21], 80%. Also, the values for the residual activity in [22] and in experiment [23] were 85% and 79%, respectively. Moreover, the values for the inhibition in experiment [5], in experiment [8] and in experiment [18] were 20.7%, 8.55% and -0.8%, respectively.

Turning to `CCc1ccccc1C(=O)Nc1n[nH]c2c(C)c(F)c(C3C(C#N)=C(C)N(C)C(C)=C3C#N)cc12` [BAY-3827], the residual activity in [1] was 88%; in experiment [2], 100%; in experiment [3] it was 100%; in [4], 100%; in [6], 97%; in experiment [7] it was 68%. For the same molecule, the residual activity is 84% in experiment [9]; 93% in experiment [10]; 72% in [11]; 100% in experiment [12]; 55% in experiment [13]; 100% in experiment [14]. For the same molecule, the residual activity was 100% in experiment [15]; 90% in experiment [16]; 11% in experiment [17]; 39% in [19]; 100% in experiment [20]; 38% in experiment [21]. Also, the figures for the residual activity in experiment [22] and in [23] were 100% and 96%, respectively. Besides, the inhibition in experiment [5] is 10.6%; in [8], 5.2%; in experiment [18], -7.98%.

Source of the values: ChEMBL document CHEMBL4507319 (2021).
